Measured values as given in publication PMC9279437, “Cytopathic SARS-CoV-2 screening on VERO-E6 cells in a large-scale repurposing effort” (Scientific Data, 2022).
pIC50: −log10 of the molar value. Structures can show the parent of a compound that is named as a salt. Where two headings read alike, the source gives them in different places. Peptide text beside a SMILES is read from it. * marks the point of attachment. Cbz = O=C(OCc1ccccc1)*

Legend:
[1] = Cytotoxicity assessment in dose response without virus infection; conditions: Chlorocebus sabaeus (African green monkey)
Vero E6 EGFP cells [2] = test system: Vero E6 EGFP cells
SARS-CoV-2 [3] = test system: SARS-CoV-2
SARS-CoV-2 [4] = assay: microbe, parasite or virus in culture
in vitro = conditions: Chlorocebus sabaeus (African green monkey)
coronavirus OCR43 = test system: coronavirus OCR43; parameters: method as in PMID 33324406; conditions: LLC-MK2 cells; cited from earlier work
SARS CoV-2 = test system: SARS CoV-2; parameters: method as in PMID 32473310; conditions: VERO-E6 cells; cited from earlier work
Vero E6 EGFP cells [5] = assay: Cytotoxicity assessment in dose response without virus infection; conditions: cytotoxicity in the absence of virus, Vero E6 EGFP, 33 µM to 10 nM
SARS-CoV-2 [6] = assay: Primary anti-cytopathicity assay development: control compound profiling, 384-well plates; format: cell-based, Severe acute respiratory syndrome coronavirus 2; conditions: mean
[7] = ratio of cytotoxic to anti-cytopathic effects
[8] = Severe acute respiratory syndrome coronavirus 2, Vero C1008, 96 h
[9] = Severe acute respiratory syndrome coronavirus 2, read-out: Average IC50, d3 of incubation, 4000 cells seeded
[10] = Severe acute respiratory syndrome coronavirus 2, read-out: Average IC50, d3 of incubation, 8000 cells seeded
[11] = Severe acute respiratory syndrome coronavirus 2, read-out: Average IC50, d4 of incubation, 4000 cells seeded
[12] = Severe acute respiratory syndrome coronavirus 2, read-out: Average IC50, d4 of incubation, 8000 cells seeded
[13] = Severe acute respiratory syndrome coronavirus 2, read-out: Average IC50, d5 of incubation, 4000 cells seeded
[14] = Severe acute respiratory syndrome coronavirus 2, read-out: Average IC50, d5 of incubation, 8000 cells seeded

## COc1ccc2cc1Oc1ccc(cc1)C[C@H]1c3cc(c(OC)cc3CCN1C)Oc1c(OC)c(OC)cc3c1[C@H](C2)N(C)CC3 [Tetrandrine (Fanchinine), Tetrandrine]
[1]
  CC50 at 4 days: > 33 µM

## Nc1ncnc2c1ncn2[C@@H]1CC[C@@H](O)[C@H]1O [DHCaA]
Vero E6 EGFP cells [2]
  CC50: 15.7 µM

## Nc1cc2c3ccccc3ccc2c2ccccc12 [6-amino-chrysene]
SARS-CoV-2 [3]; [7]
  SI (CC50/IC50): 2.84
SARS-CoV-2 [4]; [8]
  pIC50: 4.93
In vitro
  CC50: > 33 µM

## O=C(c1ccc(OCCN2CCCCC2)cc1)c1c(-c2ccc(O)cc2)sc2cc(O)ccc12 [Raloxifene hydrochloride]
SARS-CoV-2 [3]
  pIC50: 4.81
  SI (CC50/IC50): 2.14
Coronavirus OCR43
  activity against coronavirus OCR43: active
[1]
  CC50 at 4 days: > 33 µM
SARS CoV-2
  activity in phenotypic assay of SARS CoV-2 viral infection: active
SARS-CoV-2 [4]; [8]
  pIC50: > 4.70

## Nc1nc2c(ncn2[C@@H]2O[C@H](CO)[C@@H](O)[C@H]2O)c(=S)[nH]1 [Thioguanosine]
In vitro
  CC50: > 33 µM

## CC(C)C[C@@H](C=O)NC(=O)[C@H](CC(C)C)NC(=O)[C@H](CC(C)C)NC(=O)OCc1ccccc1 [MG-132] (Cbz-Leu-Leu-Leu-aldehyde)
[1]
  CC50 at 4 days: 2.9 µM

## CCN(CC)CCOc1ccc(C(=C(Cl)c2ccccc2)c2ccccc2)cc1 [Clomiphene citrate]
[1]
  CC50 at 4 days: > 33 µM

## OCCNC1CCCc2c1[nH]c1ccc(-c3ccccc3)cc21 (centres unmarked) [casin]
Vero E6 EGFP cells [2]
  CC50: > 33 µM

## Cc1[nH]c(/C=C2\C(=O)Nc3ccc(S(=O)(=O)Cc4c(Cl)cccc4Cl)cc32)c(C)c1C(=O)N1CCC[C@@H]1CN1CCCC1 [PHA-665752]
In vitro
  CC50: > 33 µM

## CCN(CC)c1ccc2cc(-c3nc4ccccc4[nH]3)c(=O)oc2c1 [Coumarin 7]
SARS-CoV-2 [3]
  pIC50: 6.44
  SI (CC50/IC50): 91.67

## CC(=O)[C@]1(N)Cc2c(O)c3c(c(O)c2[C@@H](O[C@H]2C[C@H](O)[C@H](O)CO2)C1)C(=O)c1ccccc1C3=O [Amrubicin]
SARS-CoV-2 [3]; [7]
  SI (CC50/IC50): 100.00
SARS-CoV-2 [4]; [8]
  pIC50: 6.48
In vitro
  CC50: > 33 µM

## CCCCCCCCCCCCCCOc1ccc(C(=O)O)o1 [KD-023]
SARS-CoV-2 [3]
  pIC50: 5.39
SARS-CoV-2 [3]; [7]
  SI (CC50/IC50): 8.17

## 3'-fluoro-benzyl-spiperone
Vero E6 EGFP cells [5]
  CC50: 27.4 µM

## CCN1CCN(Cc2ccc(-c3cc4c(N[C@H](C)c5ccccc5)ncnc4[nH]3)cc2)CC1 [AEE788]
SARS-CoV-2 [3]; [7]
  SI (CC50/IC50): 8.38
[1]
  CC50 at 4 days: > 33 µM
SARS-CoV-2 [4]; [8]
  pIC50: 5.40

## CCN(CC)CCCC(C)Nc1ccnc2cc(Cl)ccc12 (centres unmarked) [Chloroquine, chloroquine]
SARS-CoV-2 [6]; [9]
  pIC50: 4.95
SARS-CoV-2 [6]; [10]
  pIC50: 5.06
SARS-CoV-2 [6]; [11]
  pIC50: 4.87
SARS-CoV-2 [6]; [12]
  pIC50: 4.87
SARS-CoV-2 [6]; [13]
  pIC50: 4.87
SARS-CoV-2 [6]; [14]
  pIC50: 4.77

## Rhodamine-123
SARS-CoV-2 [3]
  pIC50: 6.10
SARS-CoV-2 [3]; [7]
  SI (CC50/IC50): 41.25

## C[C@@H]1C[C@@H]([C@H](O)CC2CC(=O)NC(=O)C2)C(=O)[C@@H](C)C1 [Cycloheximide]
In vitro
  CC50: 10.2 µM

## COc1ccc2c(c1)[C@]1(C[C@H]1c1ccc3c(/C=C/c4ccc(CN5C[C@@H](C)O[C@@H](C)C5)cc4)n[nH]c3c1)C(=O)N2 [CFI-400945]
In vitro
  CC50 at 4 days: > 33 µM

## Cc1cccc(C)c1OCC(=O)N[C@@H](Cc1ccccc1)[C@@H](O)C[C@H](Cc1ccccc1)NC(=O)[C@H](C(C)C)N1CCCNC1=O [Lopinavir, lopinavir]
SARS-CoV-2 [6]; [9]
  pIC50: 5.04
SARS-CoV-2 [6]; [10]
  pIC50: 5.12
SARS-CoV-2 [6]; [11]
  pIC50: 4.95
SARS-CoV-2 [6]; [12]
  pIC50: 4.92
SARS-CoV-2 [6]; [14]
  pIC50: 4.68

## CN1CCN(C2CCN(C(=O)Nc3cc(Oc4ccc(NC(=O)C5(C(=O)Nc6ccc(F)cc6)CC5)c(F)c4)ccn3)CC2)CC1 [Golvatinib (E7050), Golvatinib]
SARS-CoV-2 [3]; [7]
  SI (CC50/IC50): 5.60
SARS-CoV-2 [4]; [8]
  pIC50: 5.23
In vitro
  CC50 at 4 days: > 33 µM

## Cc1ccc(NC(=O)c2ccc(CN3CCN(C)CC3)cc2)cc1Nc1nc(-c2cccnc2)cs1 [Masitinib (AB1010), Masitinib]
[1]
  CC50 at 4 days: > 33 µM
SARS-CoV-2 [4]; [8]
  pIC50: > 4.70

## Cc1cc(O)c2c(=O)c3c(O)cc(O)c4c5c(O)cc(O)c6c(=O)c7c(O)cc(C)c8c1c2c(c34)c(c78)c65 [Hypericin]
SARS-CoV-2 [3]; [7]
  SI (CC50/IC50): 5.24
SARS-CoV-2 [4]; [8]
  pIC50: 6.60
In vitro
  CC50: 1.31 µM

## CC(C)(C)NCc1ccc(Nc2ccnc3cc(Cl)ccc23)cc1O [N-tert-Butylisoquine]
In vitro
  CC50 at 4 days: 12.4 µM

## O=C(Nc1ccc([N+](=O)[O-])cc1Cl)c1cc(Cl)ccc1O [Niclosamide]
SARS-CoV-2 [3]
  SI (CC50/IC50): 8.05
[1]
  CC50 at 4 days: > 33 µM
SARS-CoV-2 [4]; [8]
  pIC50: 5.39

## CC(C)COCC(CN(Cc1ccccc1)c1ccccc1)N1CCCC1 (centres unmarked) [Bepridil]
[1]
  CC50 at 4 days: 23.4 µM

## COc1cc2c(N3CCN(C(=O)Nc4ccc(OC(C)C)cc4)CC3)ncnc2cc1OCCCN1CCCCC1 [Tandutinib (MLN518), Tandutinib]
SARS-CoV-2 [3]
  pIC50: > 4.70
In vitro
  CC50: > 33 µM

## CCCCN(CCCC)CCC(O)c1cc2c(Cl)cc(Cl)cc2c2cc(C(F)(F)F)ccc12 (centres unmarked) [Halofantrine hydrochloride]
[1]
  CC50 at 4 days: > 33 µM

## O=C(c1c2ccccc2cc2ccccc12)N1CCC(N2CCC[C@@H](C(=O)N3CCOCC3)C2)CC1 [CP-640186 (hydro-chloride)]
Vero E6 EGFP cells [2]
  CC50: 10.9 µM

## Nc1c[nH]c(=O)c2cc(-c3ccccc3)sc12 [Thieno-pyridone]
SARS-CoV-2 [3]
  pIC50: 5.28
SARS-CoV-2 [3]; [7]
  SI (CC50/IC50): 6.27
Vero E6 EGFP cells [2]
  CC50: > 33 µM

## O=C(c1c2ccccc2cc2ccccc12)N1CCC(N2CCC[C@@H](C(=O)N3CCOCC3)C2)CC1 [CP-640186]
Vero E6 EGFP cells [5]
  CC50: 10.2 µM

## CNCc1ccc(-c2cc(-c3nc(-c4ccc(S(=O)(=O)C(C)C)cc4)cnc3N)on2)cc1 [VE-822]
SARS-CoV-2 [3]
  pIC50: > 4.70
SARS-CoV-2 [3]; [7]
  SI (CC50/IC50): 3.75
In vitro
  CC50 at 4 days: 10 µM

## Cc1c(O)cccc1C(=O)N[C@@H](CSc1ccccc1)[C@H](O)CN1C[C@H]2CCCC[C@H]2C[C@H]1C(=O)NC(C)(C)C [[…]]
In vitro
  CC50: > 33 µM

## CCN(CC)Cc1cc(Nc2ccnc3cc(Cl)ccc23)ccc1O [Amodiaquine]
SARS-CoV-2 [3]
  SI (CC50/IC50): 4.12
[1]
  CC50 at 4 days: 16.8 µM
SARS-CoV-2 [4]; [8]
  pIC50: 5.39

## COc1cc(C[C@H]2c3cc(OC)c(OC)cc3CCN2C)c(Oc2cc3c(cc2OC)-c2c(OC)c(OC)cc4c2[C@H](C3)N(C)CC4)cc1OC [Thaliblastine]
SARS-CoV-2 [3]
  pIC50: 5.41
SARS-CoV-2 [3]; [7]
  SI (CC50/IC50): 8.53

## Cc1cc(O[C@@H](CCC(F)(F)F)c2ccc(C(=O)NCCC(=O)O)cc2)cc(C)c1-c1ccc(C(C)(C)C)cc1 [Adomeglivant]
In vitro
  CC50 at 4 days: > 33 µM

## CC(C)(O)CNc1ncc(-c2ccnc(Nc3ccnc(Cl)c3)n2)c(CC2CC2)n1 [VPS34-IN-1]
In vitro
  CC50: 26.8 µM

## CCN(CCO)CCCC(C)Nc1ccnc2cc(Cl)ccc12 (centres unmarked) [Hydroxychloroquine, hydroxychloroquine]
SARS-CoV-2 [6]; [9]
  pIC50: 4.79
SARS-CoV-2 [6]; [10]
  pIC50: 4.80
SARS-CoV-2 [6]; [11]
  pIC50: 4.68
SARS-CoV-2 [6]; [12]
  pIC50: 4.59
SARS-CoV-2 [6]; [14]
  pIC50: 4.36

## O=C1OC2(c3ccc(O)cc3Oc3cc(O)ccc32)c2ccccc21 [Fluorescein]
SARS-CoV-2 [3]; [7]
  SI (CC50/IC50): 49.25
[1]
  CC50 at 4 days: > 33 µM
SARS-CoV-2 [4]; [8]
  pIC50: 6.17

## Cc1cccc(Nc2nc(-c3ccncc3)cs2)c1 [STF-62247]
Vero E6 EGFP cells [5]
  CC50: 31.5 µM

## CCC(CC)COC(=O)[C@H](C)N[P@](=O)(OC[C@H]1O[C@@](C#N)(c2ccc3c(N)ncnn23)[C@H](O)[C@@H]1O)Oc1ccccc1 [Remdesivir, remdesivir]
SARS-CoV-2 [6]; [9]
  pIC50: 5.56
SARS-CoV-2 [6]; [10]
  pIC50: 5.81
SARS-CoV-2 [6]; [11]
  pIC50: 5.43
SARS-CoV-2 [6]; [12]
  pIC50: 5.64
SARS-CoV-2 [6]; [13]
  pIC50: 5.33
SARS-CoV-2 [6]; [14]
  pIC50: 5.52
SARS-CoV-2 [4]; Severe acute respiratory syndrome coronavirus 2, Vero C1008, read-out: IC50 (%Confluence versus compound concentration), positive control, curve fitting example Fig. 4
  pIC50: 5.77

## Nc1nc2nn[nH]c2c(=O)[nH]1 [8-Azaguanine]
SARS-CoV-2 [3]
  SI (CC50/IC50): 2.79
SARS-CoV-2 [4]; [8]
  pIC50: 5.43
In vitro
  CC50: 10.4 µM

## COc1cc(NCc2ccc3nc(N)nc(N)c3c2C)cc(OC)c1OC [Trimetrexate]
SARS-CoV-2 [3]
  pIC50: > 4.70
[1]
  CC50 at 4 days: 1.99 µM
